Measurements reported in the supplement of paper PMC4862054.

Columns and labels:
Test in all cases: normalised response (% of control), CellTiter-Glo; higher = more viable cells (100 = DMSO, 0 = benzethonium chloride kill control)
Conditions in all cases: incubation time: 72 h
[1] = test system: MDA-MB-468
How it was run: (§1)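 Every value is a normalised signal taken at one concentration of a dilution series. Compound was placed in 384-well plates at 5 concentrations in 10-fold steps over a compound-specific 10,000-fold range, and 20 µl of breast cancer cell suspension was seeded onto it. After 72 h, CellTox Green fluorescence (485/520 nm) was measured first and CellTiter-Glo luminescence second, following 10 min at room temperature. Each plate was scaled to 0.1 % DMSO (100) and a positive kill control (0).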

[2] = test system: CAL-85-1
How it was run: as §1

[3] = test system: MDA-MB-453
How it was run: as §1

[4] = test system: MDA-MB-436
How it was run: as §1

[5] = test system: MCF-10A
How it was run: as §1

[6] = test system: HCC1599
How it was run: as §1

[7] = test system: Hs578T
How it was run: as §1

[8] = test system: BT-474
How it was run: as §1

[9] = test system: CAL-120
How it was run: as §1

[10] = test system: HCC1143
How it was run: as §1

[11] = test system: BT-549
How it was run: as §1

[12] = test system: HDQ-P1
How it was run: as §1

[13] = test system: CAL-148
How it was run: as §1

[14] = test system: MDA-MB-231
How it was run: as §1

[15] = test system: DU-4475
How it was run: as §1

[16] = test system: HCC1937
How it was run: as §1

[17] = test system: SK-BR-3
How it was run: as §1

[18] = test system: CAL-51
How it was run: as §1

[19] = test system: MFM-223
How it was run: as §1

| SMILES | normalised response [1] [%] | normalised response [2] [%] | normalised response [3] [%] | normalised response [4] [%] | normalised response [5] [%] | normalised response [6] [%] | normalised response [7] [%] | normalised response [8] [%] | normalised response [9] [%] | normalised response [10] [%] | normalised response [11] [%] | normalised response [12] [%] | normalised response [13] [%] | normalised response [14] [%] | normalised response [15] [%] | normalised response [16] [%] | normalised response [17] [%] | normalised response [18] [%] | normalised response [19] [%] |
| --- | --- | --- | --- | --- | --- | --- | --- | --- | --- | --- | --- | --- | --- | --- | --- | --- | --- | --- | --- |
| COc1ccc(-c2cc3c(C)nc(N)nc3n([C@H]3CC[C@H](OCCO)CC3)c2=O)cn1 (1 nM) | 97 | 93.8 | 97.4 | 83.5 | 84.8 | 104 | 96.8 | 93.4 | 91.1 | 88.6 | 101 | 89.5 | 82.3 | 96.5 | 90.7 | 96.2 | 80.9 | 112 | 85.4 |
| Cc1c(Cn2c(C)nc3c(C(=O)O)cc(N4CCOCC4)cc32)cccc1C(F)(F)F (1 nM) | 97.5 | 96.9 | 100 | 95.8 | 113 | 73.8 | 98.5 | 95.9 | 101 | 108 | 99.8 | 103 | 101 | 107 | 99.1 | 96 | 106 | 104 | 104 |
| COc1ccc(-c2cc3c(C)nc(N)nc3n([C@H]3CC[C@H](OCCO)CC3)c2=O)cn1 (10 nM) | 82.6 | 90.8 | 83.5 | 85.4 | 79.8 | 89.3 | 94.8 | 88.8 | 92.3 | 96.5 | 89.6 | 87.2 | 87.8 | 90.7 | 93.2 | 86.2 | 67.2 | 82.8 | 88.9 |
| Cc1c(Cn2c(C)nc3c(C(=O)O)cc(N4CCOCC4)cc32)cccc1C(F)(F)F (10 nM) | 105 | 99.5 | 100 | 98.9 | 118 | 118 | 105 | 101 | 99.5 | 104 | 94.8 | 101 | 112 | 107 | 102 | 98.8 | 100 | 79.4 | 104 |
| CC/C(=C(\c1ccc(O)cc1)c1ccc(OCCN(C)C)cc1)c1ccccc1 [4-hydroxytamoxifen] (1 nM) | 98.8 | 100 | 107 | 103 | 101 | 96 | 108 | 101 | 98.6 | 95 | 107 | 97.7 | 102 | 96.6 | 99.4 | 99.6 | 107 | 91.2 | 101 |
| CC/C(=C(\c1ccc(O)cc1)c1ccc(OCCN(C)C)cc1)c1ccccc1 [4-hydroxytamoxifen] (10 nM) | 108 | 97 | 112 | 90 | 109 | 93.5 | 102 | 96.7 | 98.3 | 101 | 97.1 | 95.7 | 110 | 96.8 | 103 | 97 | 98.3 | 88.4 | 104 |
| CCCCC/C=C/C=C1/C(=O)C=C[C@@H]1C/C=C\CCCC(=O)O [15D-PGJ2] (0.08 nM) | 95.8 | 95.3 | 111 | 102 | 103 | 101 | 99.6 | 102 | 102 | 102 | 98.4 | 104 | 108 | 106 | 96.6 | 94.5 | 106 | 96.8 | 103 |
| O=C(Nc1c[nH]nc1-c1nc2ccc(CN3CCOCC3)cc2[nH]1)NC1CC1 [AT9283] (1 nM) | 97.5 | 98.7 | 98.6 | 103 | 101 | 101 | 98.7 | 95.7 | 93.4 | 102 | 97.3 | 103 | 94.5 | 102 | 102 | 102 | – | 103 | 103 |
| CCC/C=C/C=C/C(=O)O[C@H]1/C(=C/C(=O)OC)C[C@H]2C[C@H]([C@@H](C)O)OC(=O)C[C@H](O)C[C@@H]3C[C@H](OC(C)=O)C(C)(C)[C@](O)(C[C@@H]4C/C(=C/C(=O)OC)C[C@H](/C=C/C(C)(C)[C@]1(O)O2)O4)O3 [Bryostatin 1] (0.1 nM) | 94.3 | 98.2 | 97.7 | 107 | 109 | 116 | 95.5 | 103 | 91.1 | 101 | 95.8 | 91.5 | 115 | 103 | 97 | 99 | – | 119 | 105 |
| CO[C@@H](C(=O)N1Cc2[nH]nc(NC(=O)c3ccc(N4CCN(C)CC4)cc3)c2C1)c1ccccc1 [Danusertib] (10 nM) | 87.1 | 94.9 | 103 | 105 | 103 | 98.1 | 99.2 | 102 | 93.4 | 95.7 | 99.7 | 97.9 | 95.7 | 96.6 | 102 | 93.8 | – | 113 | 103 |
| Cc1nc(Nc2ncc(C(=O)Nc3c(C)cccc3Cl)s2)cc(N2CCN(CCO)CC2)n1 [Dasatinib] (1 nM) | 95.6 | 101 | 101 | 94.5 | 90 | 115 | 103 | 93.5 | 98.9 | 97.9 | 103 | 93.5 | 93.7 | 87.9 | 96.4 | 99.6 | – | 106 | 97.7 |
| O=S(=O)(c1cccc2cnccc12)N1CCCNCC1 [Fasudil] (50 nM) | 101 | 97 | 104 | 106 | 104 | 98.5 | 94.9 | 97.8 | 94.3 | 102 | 101 | 96.6 | 102 | 99.9 | 104 | 99.4 | – | 117 | 99.3 |
| Cc1cccc(-c2nn3c(c2-c2ccnc4ccc(C(N)=O)cc24)CCC3)n1 [Galunisertib] (1 nM) | 104 | 99.5 | 115 | 108 | 102 | 103 | 103 | 109 | 101 | 111 | 102 | 102 | 123 | 105 | 107 | 99 | – | 92.5 | 107 |
| C[C@]12O[C@H](C[C@]1(O)CO)n1c3ccccc3c3c4c(c5c6ccccc6n2c5c31)CNC4=O [Lestaurtinib] (1 nM) | 102 | 104 | 94.3 | 100 | 96.6 | 90.8 | 101 | 104 | 93.9 | 102 | 97.3 | 95.4 | 100 | 99.8 | 97.7 | 98.9 | – | 133 | 101 |
| Nc1ccccc1NC(=O)c1ccc(CNc2nccc(-c3cccnc3)n2)cc1 [Mocetinostat] (10 nM) | 101 | 95.7 | 105 | 99.1 | 106 | 94.3 | 103 | 98.4 | 97 | 97.6 | 98.3 | 110 | 98.1 | 103 | 105 | 104 | – | 129 | 100 |
| Cc1ccc(Nc2nccc(N(C)c3ccc4c(C)n(C)nc4c3)n2)cc1S(N)(=O)=O [Pazopanib] (10 nM) | 104 | 100 | 109 | 107 | 97.2 | 100 | 94.8 | 98.2 | 91.9 | 102 | 93.9 | 97.2 | 104 | 98.2 | 107 | 100 | – | 82.8 | 98 |
| CS(=O)(=O)N1CCN(Cc2cc3nc(-c4cccc5[nH]ncc45)nc(N4CCOCC4)c3s2)CC1 [Pictilisib] (1 nM) | 99.5 | 119 | 112 | 91.1 | 102 | 96.8 | 99.7 | 92.7 | 93.9 | – | 104 | 97.3 | 93.1 | 101 | 104 | 95 | 107 | 102 | 104 |
| O=C(NC[C@H](O)CO)c1ccncc1Nc1ccc(I)cc1F [Pimasertib] (10 nM) | 91.9 | 87.8 | 99.7 | 107 | 66.6 | 105 | 92.2 | 102 | 103 | 94.2 | 91.4 | 81.1 | 90.8 | 97.6 | 83.9 | 102 | – | 124 | 99.2 |
| c1cc(CN2CCCNCCNCCCNCC2)ccc1CN1CCCNCCNCCCNCC1 [Plerixafor] (10 nM) | 94.1 | 93.1 | 81.9 | 97.3 | 81.5 | 95.2 | 97.7 | 97.2 | 96.2 | 105 | 99.6 | 103 | 91.1 | 99 | 91.1 | 102 | – | 82.7 | 88.6 |
| CNC(=O)c1cc(Oc2ccc(NC(=O)Nc3ccc(Cl)c(C(F)(F)F)c3)cc2)ccn1 [Sorafenib] (1 nM) | 106 | 104 | 93.8 | 96.4 | 105 | 109 | 102 | 104 | 98.2 | 100 | 94.7 | 102 | 114 | 102 | 103 | 101 | – | 119 | 107 |
| CC[C@@]1(O)C(=O)OCc2c1cc1n(c2=O)Cc2cc3c(CN(C)C)c(O)ccc3nc2-1 [Topotecan] (10 nM) | 97.6 | 95.8 | 104 | 94.4 | 92.7 | 93.2 | 100 | 98.2 | 96.1 | 93.9 | 90.3 | 98.4 | 103 | 94.1 | 95.4 | 95.8 | – | 91.9 | 99.9 |
